Experimental data published in article PMC4628873 (Bioorganic & medicinal chemistry letters, 2015).
Values belong to the compound of their own block, whether it stands above or below them.

Key:
α1A adrenergic receptor [1] = biological target: T1, α1A adrenergic receptor (Homo sapiens, UniProt P35348); experiment: FLIPR calcium mobilization functional assay, α1A adrenergic receptor
T1 sequence (P35348 1-466): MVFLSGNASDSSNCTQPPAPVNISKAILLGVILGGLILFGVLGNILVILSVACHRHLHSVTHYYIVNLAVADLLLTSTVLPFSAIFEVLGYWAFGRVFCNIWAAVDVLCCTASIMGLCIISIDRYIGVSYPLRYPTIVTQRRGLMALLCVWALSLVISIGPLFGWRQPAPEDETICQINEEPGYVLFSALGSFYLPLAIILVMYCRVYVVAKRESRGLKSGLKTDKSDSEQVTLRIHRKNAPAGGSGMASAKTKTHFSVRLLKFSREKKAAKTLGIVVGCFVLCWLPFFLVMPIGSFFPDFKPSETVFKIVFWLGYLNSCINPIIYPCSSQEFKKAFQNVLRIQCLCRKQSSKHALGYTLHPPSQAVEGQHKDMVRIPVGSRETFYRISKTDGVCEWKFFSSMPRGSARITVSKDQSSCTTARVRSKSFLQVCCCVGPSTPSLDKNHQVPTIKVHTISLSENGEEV

5-HT2A receptor [2] = biological target: T2, 5-HT2A receptor (Homo sapiens, UniProt P28223); experiment: FLIPR calcium mobilization functional assay, human 5-HT2A receptor; conditions: for Selectivity α1A/5-HT2A: ratio of Ke α1A / Ke 5-HT2A
α1A adrenergic receptor [3] = biological target: T1, α1A adrenergic receptor; conditions: prior SAR studies; cited from earlier work
β3 = β3 (Homo sapiens, UniProt P13945); experiment: PDSP screening; conditions: no affinity
β1 = β1 (Homo sapiens, UniProt P08588); experiment: PDSP screening; conditions: no affinity
MOR = MOR (Homo sapiens, UniProt P35372); experiment: PDSP screening; conditions: no affinity
α1D = α1D (Homo sapiens, UniProt P25100); experiment: PDSP screening; conditions: no affinity
D5 = D5 (Homo sapiens, UniProt P21918); experiment: PDSP screening; conditions: no affinity
5-HT2A receptor [4] = biological target: T2, 5-HT2A receptor; experiment: PDSP screening
SERT = SERT (Homo sapiens, UniProt P31645); experiment: PDSP screening; conditions: no affinity
β2 = β2 (Homo sapiens, UniProt P07550); experiment: PDSP screening; conditions: no affinity
NET = NET (Homo sapiens, UniProt P23975); experiment: PDSP screening; conditions: no affinity
α1B = α1B (Homo sapiens, UniProt P35368); experiment: PDSP screening; conditions: no affinity
sigma-2 = sigma-2 (Rattus norvegicus, UniProt Q5U3Y7); experiment: PDSP screening
H3 = H3 (Homo sapiens, UniProt Q9Y5N1); experiment: PDSP screening; conditions: no affinity
KOR = KOR (Homo sapiens, UniProt P41145); experiment: PDSP screening; conditions: no affinity
5-HT6 = 5-HT6 (Homo sapiens, UniProt P50406); experiment: PDSP screening
M3 = M3 (Homo sapiens, UniProt P20309); experiment: PDSP screening; conditions: no affinity
M1 = M1 (Homo sapiens, UniProt P11229); experiment: PDSP screening; conditions: no affinity
5-HT1A = 5-HT1A (Homo sapiens, UniProt P08908); experiment: PDSP screening; conditions: no affinity
D2 = D2 (Homo sapiens, UniProt P14416); experiment: PDSP screening; conditions: no affinity
5-HT2C = 5-HT2C (Homo sapiens, UniProt P28335); experiment: PDSP screening
DAT = DAT (Homo sapiens, UniProt Q01959); experiment: PDSP screening
α2A = α2A (Homo sapiens, UniProt P08913); experiment: PDSP screening
α1A = α1A (Homo sapiens, UniProt P35348); experiment: PDSP screening; conditions: no affinity
GABAA = experiment: PDSP screening; conditions: no affinity
D4 = D4 (Homo sapiens, UniProt P21917); experiment: PDSP screening; conditions: no affinity
H1 = H1 (Homo sapiens, UniProt P35367); experiment: PDSP screening; conditions: no affinity
M2 = M2 (Homo sapiens, UniProt P08172); experiment: PDSP screening; conditions: no affinity
H4 = H4 (Homo sapiens, UniProt Q9H3N8); experiment: PDSP screening; conditions: no affinity
5-HT5A = 5-HT5A (Homo sapiens, UniProt P47898); experiment: PDSP screening; conditions: no affinity
BZP rat brain site = experiment: PDSP screening; conditions: no affinity
DOR = DOR (Homo sapiens, UniProt P41143); experiment: PDSP screening; conditions: no affinity
PBR = PBR (Rattus norvegicus, UniProt P16257); experiment: PDSP screening
M4 = M4 (Homo sapiens, UniProt P08173); experiment: PDSP screening; conditions: no affinity
Chain of M4 (P08173 whole entry): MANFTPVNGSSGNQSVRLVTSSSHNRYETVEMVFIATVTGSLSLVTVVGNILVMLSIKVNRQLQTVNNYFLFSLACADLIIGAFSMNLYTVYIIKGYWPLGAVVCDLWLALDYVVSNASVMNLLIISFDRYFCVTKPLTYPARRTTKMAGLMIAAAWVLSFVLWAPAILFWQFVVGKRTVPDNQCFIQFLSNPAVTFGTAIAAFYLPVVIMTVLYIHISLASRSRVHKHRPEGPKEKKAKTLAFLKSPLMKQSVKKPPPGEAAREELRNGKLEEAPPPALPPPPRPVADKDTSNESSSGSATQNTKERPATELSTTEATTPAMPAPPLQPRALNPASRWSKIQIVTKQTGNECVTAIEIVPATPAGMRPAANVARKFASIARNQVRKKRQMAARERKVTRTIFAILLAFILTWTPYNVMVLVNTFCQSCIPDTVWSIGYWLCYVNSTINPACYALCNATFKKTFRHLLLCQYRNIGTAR

T2 sequence (P28223 whole entry): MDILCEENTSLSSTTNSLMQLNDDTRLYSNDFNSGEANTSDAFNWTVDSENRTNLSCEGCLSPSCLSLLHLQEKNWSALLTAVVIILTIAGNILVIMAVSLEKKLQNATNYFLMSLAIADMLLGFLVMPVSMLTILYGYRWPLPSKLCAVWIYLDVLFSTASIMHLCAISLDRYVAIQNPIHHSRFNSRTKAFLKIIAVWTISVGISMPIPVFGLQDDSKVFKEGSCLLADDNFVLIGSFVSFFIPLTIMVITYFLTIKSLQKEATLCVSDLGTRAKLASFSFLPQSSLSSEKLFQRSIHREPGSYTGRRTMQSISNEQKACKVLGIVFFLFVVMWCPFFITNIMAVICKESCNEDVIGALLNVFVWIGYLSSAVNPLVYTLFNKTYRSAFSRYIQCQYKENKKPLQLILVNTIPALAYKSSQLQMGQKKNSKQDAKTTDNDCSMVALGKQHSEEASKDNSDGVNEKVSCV
Chain of NET (P23975 whole entry): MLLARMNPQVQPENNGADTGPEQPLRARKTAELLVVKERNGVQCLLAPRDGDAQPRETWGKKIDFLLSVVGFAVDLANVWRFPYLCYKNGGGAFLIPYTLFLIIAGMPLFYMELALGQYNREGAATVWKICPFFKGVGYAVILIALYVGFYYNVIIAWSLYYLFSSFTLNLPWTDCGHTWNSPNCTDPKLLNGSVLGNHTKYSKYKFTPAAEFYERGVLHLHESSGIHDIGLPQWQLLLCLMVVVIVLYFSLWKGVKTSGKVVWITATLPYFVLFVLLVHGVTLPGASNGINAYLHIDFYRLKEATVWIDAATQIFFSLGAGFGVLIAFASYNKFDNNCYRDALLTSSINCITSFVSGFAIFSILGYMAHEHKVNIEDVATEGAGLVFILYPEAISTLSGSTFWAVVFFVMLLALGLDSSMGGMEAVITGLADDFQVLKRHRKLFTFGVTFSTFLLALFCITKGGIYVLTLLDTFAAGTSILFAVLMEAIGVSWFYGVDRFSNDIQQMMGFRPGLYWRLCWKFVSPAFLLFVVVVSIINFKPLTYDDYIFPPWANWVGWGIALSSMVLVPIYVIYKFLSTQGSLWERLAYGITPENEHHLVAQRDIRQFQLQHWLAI
Chain of β3 (P13945 whole entry): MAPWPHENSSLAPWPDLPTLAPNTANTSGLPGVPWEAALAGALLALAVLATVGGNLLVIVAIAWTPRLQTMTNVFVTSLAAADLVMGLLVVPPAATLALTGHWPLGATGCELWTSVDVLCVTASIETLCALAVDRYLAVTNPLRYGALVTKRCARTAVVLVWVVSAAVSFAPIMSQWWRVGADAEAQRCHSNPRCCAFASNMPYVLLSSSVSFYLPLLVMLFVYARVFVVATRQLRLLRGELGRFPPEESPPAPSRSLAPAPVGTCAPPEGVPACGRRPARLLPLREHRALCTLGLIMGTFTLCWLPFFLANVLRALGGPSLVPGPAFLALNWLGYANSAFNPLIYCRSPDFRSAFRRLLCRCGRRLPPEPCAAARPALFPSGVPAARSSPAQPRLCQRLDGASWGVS
Chain of 5-HT6 (P50406 whole entry, species assumed): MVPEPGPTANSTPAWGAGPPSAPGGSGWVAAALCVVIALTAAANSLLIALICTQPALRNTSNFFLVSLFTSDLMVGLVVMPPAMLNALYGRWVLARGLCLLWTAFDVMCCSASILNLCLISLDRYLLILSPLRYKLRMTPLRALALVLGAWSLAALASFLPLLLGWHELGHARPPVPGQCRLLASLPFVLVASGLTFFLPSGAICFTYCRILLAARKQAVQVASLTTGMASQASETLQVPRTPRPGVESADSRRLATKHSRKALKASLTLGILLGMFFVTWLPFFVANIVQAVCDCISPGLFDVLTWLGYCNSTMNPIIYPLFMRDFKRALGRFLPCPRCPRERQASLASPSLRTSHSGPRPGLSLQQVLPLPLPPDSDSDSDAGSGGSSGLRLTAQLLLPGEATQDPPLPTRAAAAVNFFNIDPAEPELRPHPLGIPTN
Chain of D2 (P14416 whole entry): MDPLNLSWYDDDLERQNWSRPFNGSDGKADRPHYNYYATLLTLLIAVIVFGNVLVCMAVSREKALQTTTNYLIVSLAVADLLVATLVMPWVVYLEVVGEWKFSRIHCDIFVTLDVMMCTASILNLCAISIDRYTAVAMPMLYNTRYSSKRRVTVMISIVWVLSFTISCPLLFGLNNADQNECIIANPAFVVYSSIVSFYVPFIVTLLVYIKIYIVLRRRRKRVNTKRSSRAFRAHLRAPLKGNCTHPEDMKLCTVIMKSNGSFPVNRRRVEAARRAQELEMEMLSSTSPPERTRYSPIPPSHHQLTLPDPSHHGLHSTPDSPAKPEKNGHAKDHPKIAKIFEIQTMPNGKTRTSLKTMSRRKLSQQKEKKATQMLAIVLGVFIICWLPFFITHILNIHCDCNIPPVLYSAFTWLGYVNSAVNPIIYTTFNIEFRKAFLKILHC
Chain of sigma-2 (Q5U3Y7 whole entry): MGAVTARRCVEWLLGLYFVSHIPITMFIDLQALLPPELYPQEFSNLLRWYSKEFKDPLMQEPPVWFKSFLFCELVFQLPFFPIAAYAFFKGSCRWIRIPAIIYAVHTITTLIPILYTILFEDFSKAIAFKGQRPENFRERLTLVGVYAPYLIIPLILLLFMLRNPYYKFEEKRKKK
Chain of H3 (Q9Y5N1 whole entry): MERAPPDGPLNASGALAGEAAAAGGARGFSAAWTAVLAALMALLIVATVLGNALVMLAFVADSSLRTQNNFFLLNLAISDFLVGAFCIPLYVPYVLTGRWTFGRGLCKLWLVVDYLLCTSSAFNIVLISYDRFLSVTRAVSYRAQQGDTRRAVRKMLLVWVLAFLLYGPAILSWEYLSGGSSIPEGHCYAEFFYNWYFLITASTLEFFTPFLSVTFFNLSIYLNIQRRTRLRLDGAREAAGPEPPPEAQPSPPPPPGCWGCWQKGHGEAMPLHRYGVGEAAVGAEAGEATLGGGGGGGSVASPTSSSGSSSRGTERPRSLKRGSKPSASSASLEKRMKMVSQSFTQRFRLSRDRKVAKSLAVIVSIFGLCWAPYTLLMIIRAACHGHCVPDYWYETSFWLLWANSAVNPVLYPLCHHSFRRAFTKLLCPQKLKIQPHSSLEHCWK
Chain of SERT (P31645 whole entry): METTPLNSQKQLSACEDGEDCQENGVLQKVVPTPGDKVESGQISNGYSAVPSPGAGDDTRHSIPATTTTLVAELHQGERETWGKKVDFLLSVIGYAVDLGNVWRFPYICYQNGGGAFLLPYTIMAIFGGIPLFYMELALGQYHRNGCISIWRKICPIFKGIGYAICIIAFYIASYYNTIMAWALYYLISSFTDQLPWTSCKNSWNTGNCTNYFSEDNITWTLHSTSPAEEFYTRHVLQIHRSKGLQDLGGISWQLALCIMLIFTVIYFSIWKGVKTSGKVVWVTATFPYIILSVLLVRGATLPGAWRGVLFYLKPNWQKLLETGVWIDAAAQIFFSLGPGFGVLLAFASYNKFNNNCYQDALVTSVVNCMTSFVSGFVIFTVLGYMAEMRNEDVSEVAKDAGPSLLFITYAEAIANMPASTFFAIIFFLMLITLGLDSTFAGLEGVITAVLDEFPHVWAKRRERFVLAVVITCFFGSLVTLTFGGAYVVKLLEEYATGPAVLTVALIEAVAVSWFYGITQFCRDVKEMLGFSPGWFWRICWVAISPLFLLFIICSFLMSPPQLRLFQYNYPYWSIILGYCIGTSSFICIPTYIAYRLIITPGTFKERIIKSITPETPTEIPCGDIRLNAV
Chain of 5-HT5A (P47898 whole entry): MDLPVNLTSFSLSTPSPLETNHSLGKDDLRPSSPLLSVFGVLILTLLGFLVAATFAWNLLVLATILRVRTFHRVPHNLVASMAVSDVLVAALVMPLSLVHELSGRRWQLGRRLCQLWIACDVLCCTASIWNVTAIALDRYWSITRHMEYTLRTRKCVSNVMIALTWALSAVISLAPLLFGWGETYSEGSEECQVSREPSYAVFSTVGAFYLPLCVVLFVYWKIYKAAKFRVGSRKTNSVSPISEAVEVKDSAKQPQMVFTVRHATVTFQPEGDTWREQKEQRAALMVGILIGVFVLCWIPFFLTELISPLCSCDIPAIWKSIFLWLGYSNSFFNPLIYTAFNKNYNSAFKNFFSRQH
Chain of 5-HT1A (P08908 whole entry): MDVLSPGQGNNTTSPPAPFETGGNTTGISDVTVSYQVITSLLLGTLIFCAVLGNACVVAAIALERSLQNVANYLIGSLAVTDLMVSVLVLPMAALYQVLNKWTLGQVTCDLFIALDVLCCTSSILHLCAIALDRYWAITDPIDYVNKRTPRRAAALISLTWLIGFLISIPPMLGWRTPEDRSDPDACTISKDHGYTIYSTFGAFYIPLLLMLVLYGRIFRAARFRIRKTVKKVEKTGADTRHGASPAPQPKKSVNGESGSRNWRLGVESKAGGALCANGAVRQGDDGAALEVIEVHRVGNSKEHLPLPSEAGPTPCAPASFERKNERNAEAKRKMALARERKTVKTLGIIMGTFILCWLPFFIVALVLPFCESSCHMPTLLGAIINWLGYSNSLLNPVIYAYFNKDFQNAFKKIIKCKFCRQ

Compound: COc1cc2c3c(c1OCc1ccc(Cl)cc1)-c1cc4c(cc1CC3N(C)CC2)OCO4 (stereo not drawn) [Compound 8i]
- Kb (α1A adrenergic receptor [1]): > 10000 nM
- Kb (5-HT2A receptor [2]): 6050 nM
- Selectivity α1A/5-HT2A (5-HT2A receptor [2]): > 1.7

Compound: COc1cc2c3c(c1OCc1ccc(C(F)(F)F)cc1)-c1cc4c(cc1CC3N(C)CC2)OCO4 (stereo not drawn) [Compound 8j]
- Kb (α1A adrenergic receptor [1]): > 10000 nM
- Kb (5-HT2A receptor [2]): 2460 nM
- Selectivity α1A/5-HT2A (5-HT2A receptor [2]): > 4.1

Compound: C/C=C/COc1c(OC)cc2c3c1-c1cc4c(cc1CC3N(C)CC2)OCO4 (stereo not drawn) [Compound 8a]
- Kb (α1A adrenergic receptor [1]): 1980 nM

Compound: C=CCOc1c(OC)cc2c3c1-c1cc4c(cc1CC3N(C)CC2)OCO4 (stereo not drawn) [Compound 5]
- Kb (α1A adrenergic receptor [1]): > 10000 nM
- affinity for the α1A adrenergic receptor (α1A adrenergic receptor [3]): devoid of affinity

Compound: COc1cc2c3c(c1OCc1ccc(Br)cc1)-c1cc4c(cc1CC3N(C)CC2)OCO4 (stereo not drawn) [Compound 8k]
- inhibition in a primary assay, β3 (β3): less than 50%
- Kb (α1A adrenergic receptor [1]): > 10000 nM
- inhibition in a primary assay, β1 (β1): less than 50%
- Kb (5-HT2A receptor [2]): 9.2 ± 2.6 nM
- Selectivity α1A/5-HT2A (5-HT2A receptor [2]): >1,086
- inhibition in a primary assay, MOR (MOR): less than 50%
- inhibition in a primary assay, α1D (α1D): less than 50%
- inhibition in a primary assay, D5 (D5): less than 50%
- Ki (5-HT2A receptor [4]): 185 nM
- inhibition in a primary assay, SERT (SERT): less than 50%
- inhibition in a primary assay, β2 (β2): less than 50%
- inhibition in a primary assay, NET (NET): less than 50%
- inhibition in a primary assay, α1B (α1B): less than 50%
- Ki (sigma-2): 300 to 900 nM
- inhibition in a primary assay, H3 (H3): less than 50%
- inhibition in a primary assay, KOR (KOR): less than 50%
- Ki (5-HT6): 300 to 900 nM
- inhibition in a primary assay, M3 (M3): less than 50%
- inhibition in a primary assay, M1 (M1): less than 50%
- inhibition in a primary assay, 5-HT1A (5-HT1A): less than 50%
- inhibition in a primary assay, D2 (D2): less than 50%
- Ki (5-HT2C): 300 to 900 nM
- Ki (DAT): 300 to 900 nM
- Ki (α2A): 300 to 900 nM
- inhibition in a primary assay, α1A (α1A): less than 50%
- inhibition in a primary assay, GABAA (GABAA): less than 50%
- inhibition in a primary assay, D4 (D4): less than 50%
- inhibition in a primary assay, H1 (H1): less than 50%
- inhibition in a primary assay, M2 (M2): less than 50%
- inhibition in a primary assay, H4 (H4): less than 50%
- inhibition in a primary assay, 5-HT5A (5-HT5A): less than 50%
- inhibition in a primary assay, BZP rat brain site (BZP rat brain site): less than 50%
- inhibition in a primary assay, DOR (DOR): less than 50%
- Ki (PBR): > 900 nM
- inhibition in a primary assay, M4 (M4): less than 50%

Compound: COc1cc2c3c(c1OCC#N)-c1cc4c(cc1CC3N(C)CC2)OCO4 (stereo not drawn) [Compound 8g]
- Kb (α1A adrenergic receptor [1]): 711 ± 64 nM
- Kb (5-HT2A receptor [2]): > 10000 nM
- Selectivity α1A/5-HT2A (5-HT2A receptor [2]): < 0.07

Compound: COc1cc2c3c(c1OC)-c1cc4c(cc1CC3N(C)CC2)OCO4 (stereo not drawn) [Compound 4, nantenine, reference compound]
- Kb (α1A adrenergic receptor [1]): 36 ± 7 nM

Compound: C=C(C)COc1c(OC)cc2c3c1-c1cc4c(cc1CC3N(C)CC2)OCO4 (stereo not drawn) [Compound 8b]
- Kb (α1A adrenergic receptor [1]): > 10000 nM

- Kb (α1A adrenergic receptor [1]): 591 ± 81 nM
- Kb (5-HT2A receptor [2]): 1910 nM
Compound: COc1cc2c3c(c1OCCOC(C)=O)-c1cc4c(cc1CC3N(C)CC2)OCO4 (stereo not drawn) [Compound 8h]

Compound: COc1cc2c3c(c1OCC=C(C)C)-c1cc4c(cc1CC3N(C)CC2)OCO4 (stereo not drawn) [Compound 8c]
- Kb (α1A adrenergic receptor [1]): > 10000 nM

- Kb (α1A adrenergic receptor [1]): > 10000 nM
- Kb (5-HT2A receptor [2]): > 10000 nM
Compound: COc1cc2c3c(c1OC/C=C/c1ccccc1)-c1cc4c(cc1CC3N(C)CC2)OCO4 (stereo not drawn) [Compound 8e]
